From PMC10095442, “Intelligent De Novo Design of Novel Antimicrobial Peptides against Antibiotic-Resistant Bacteria Strains” (International Journal of Molecular Sciences, 2023)
Residues, ends and D or L forms follow the SMILES beside them.

Legend:
[1] = test system: carbapenem-susceptible P. aeruginosa (S07-10-0059); assay type: cell-based, Pseudomonas aeruginosa; details: carbapenem-susceptible (S07-10-0059)
Experimental: (§1) MIC assays were conducted to determine the antibacterial spectrum of these peptides. MIC is defined as the minimum concentration of a reagent, viz., peptide, in this study, required to inhibit bacterial growth after overnight incubation. Microbial strains were cultured in an L.B. medium, and midlogarithmic-phase organisms were used in the antibacterial assays. All bacteria were inoculated in an L.B. medium (approximately 10^5 CFU/mL), and MIC assays were performed with various concentrations of each peptide. All activity measurements were conducted at least three times.

[2] = test system: carbapenem-resistant P. aeruginosa (M06-06-0213); assay type: cell-based, Pseudomonas aeruginosa; details: P. aeruginosa M06-06-0213 (carbapenem-resistant clinical isolate); L.B. medium, approx. 10^5 CFU/mL, overnight incubation; at least three times
Experimental: as §1

[3] = test system: methicillin-resistant S. aureus (N07-10-0043); assay type: cell-based, Staphylococcus aureus; details: S. aureus MRSA N07-10-0043 (methicillin-resistant clinical isolate); L.B. medium, approx. 10^5 CFU/mL, overnight incubation; at least three times
Experimental: as §1

[4] = test system: methicillin-susceptible S. aureus (S01-10-0202); assay type: cell-based, Staphylococcus aureus; details: methicillin-susceptible (S01-10-0202)
Experimental: as §1

Measured: Antibacterial activity (MIC)

CC(C)[C@@H]1NC(=O)[C@H](CCCNC(=N)N)NC(=O)[C@H](Cc2ccccc2)NC(=O)[C@@H](NC(=O)[C@H](Cc2c[nH]c3ccccc23)NC(=O)[C@H](CCCNC(=N)N)NC(=O)[C@@H](N)CCCNC(=N)N)CSSC[C@@H](C(=O)N[C@@H](CCCNC(=N)N)C(N)=O)NC(=O)[C@H](CCCCN)NC(=O)[C@H](CCCNC(=N)N)NC(=O)[C@H](Cc2ccc(O)cc2)NC(=O)[C@@H]2CSSC[C@H](NC1=O)C(=O)N[C@@H](Cc1ccc(O)cc1)C(=O)N[C@@H](CCCNC(=N)N)C(=O)NCC(=O)N[C@@H](Cc1ccccc1)C(=O)N2 [polyphemusin I] (HELM PEPTIDE1{R.R.W.C.F.R.V.C.Y.R.G.F.C.Y.R.K.C.R.[am]}$PEPTIDE1,PEPTIDE1,4:R3-17:R3|PEPTIDE1,PEPTIDE1,8:R3-13:R3$$$V2.0; N-terminus and C-terminus assumed)
>50 µg/mL: all assays above
